Laboratory results: ChEMBL document CHEMBL3351222, “Novel multi-targeting anthra[2,3-b]thiophene-5,10-diones with guanidine-containing side chains: interaction with telomeric G-quadruplex, inhibition of telomerase and topoisomerase I and cytotoxic properties” (Eur J Med Chem, 2014)
The source made the active and inactive calls. The calls are words filed in the database; no cut-off is given here.

Legend:
Homo sapiens [1] = species on record: Homo sapiens; experiment: Binding affinity to human telomeric G-quadruplex TelQ22-DA DNA assessed as interaction with compound at 25 degC by isothermal titration calorimetry
L1210 [2] = experiment: Cytotoxicity against mouse L1210 cells after 48 hrs by trypan blue assay; assay type: functional, cell-based; conditions: L1210, 48 h
[3] = target: T1, Telomerase reverse transcriptase (Homo sapiens, UniProt O14746); experiment: Inhibition of human telomerase transfected in human HEK293T cells assessed as DNA extension using 5'-d(AATCCGTCGAGCAGAGTT)-3' substrate by Real-time quantitative telomeric repeat amplification protocol; assay type: cell-based; conditions: hek-293t
T1 sequence (O14746 whole entry): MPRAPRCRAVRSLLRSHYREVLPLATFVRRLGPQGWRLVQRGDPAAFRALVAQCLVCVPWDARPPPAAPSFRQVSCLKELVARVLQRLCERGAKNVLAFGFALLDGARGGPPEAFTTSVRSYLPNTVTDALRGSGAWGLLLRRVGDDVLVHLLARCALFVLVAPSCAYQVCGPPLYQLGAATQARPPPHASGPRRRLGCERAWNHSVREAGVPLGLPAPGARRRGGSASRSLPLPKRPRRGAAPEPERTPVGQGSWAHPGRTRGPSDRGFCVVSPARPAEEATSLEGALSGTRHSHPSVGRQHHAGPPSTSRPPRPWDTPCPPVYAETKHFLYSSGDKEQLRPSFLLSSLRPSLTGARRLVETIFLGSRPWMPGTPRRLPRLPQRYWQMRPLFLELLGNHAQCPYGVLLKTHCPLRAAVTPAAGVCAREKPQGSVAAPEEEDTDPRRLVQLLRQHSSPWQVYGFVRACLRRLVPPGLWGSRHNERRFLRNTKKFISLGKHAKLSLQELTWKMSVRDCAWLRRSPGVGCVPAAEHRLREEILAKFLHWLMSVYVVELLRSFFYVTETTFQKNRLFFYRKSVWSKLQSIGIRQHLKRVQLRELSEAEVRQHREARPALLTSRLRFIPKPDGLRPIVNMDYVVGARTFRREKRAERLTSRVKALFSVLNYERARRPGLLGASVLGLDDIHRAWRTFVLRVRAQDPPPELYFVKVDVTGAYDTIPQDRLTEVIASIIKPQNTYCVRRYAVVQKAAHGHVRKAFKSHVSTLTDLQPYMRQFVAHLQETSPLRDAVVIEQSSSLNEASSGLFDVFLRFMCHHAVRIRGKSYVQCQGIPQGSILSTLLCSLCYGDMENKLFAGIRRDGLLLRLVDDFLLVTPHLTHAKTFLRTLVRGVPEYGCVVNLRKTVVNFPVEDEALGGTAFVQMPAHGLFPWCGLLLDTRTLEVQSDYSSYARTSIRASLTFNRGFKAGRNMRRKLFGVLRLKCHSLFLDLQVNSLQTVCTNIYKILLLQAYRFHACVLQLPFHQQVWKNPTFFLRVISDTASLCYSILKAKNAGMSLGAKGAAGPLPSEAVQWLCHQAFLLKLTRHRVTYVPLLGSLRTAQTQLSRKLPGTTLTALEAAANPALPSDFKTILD

CCRF-CEM = experiment: Cytotoxicity against human CEM cells after 48 hrs by trypan blue assay; assay type: functional, cell-based
Homo sapiens [4] = species on record: Homo sapiens; experiment: Binding affinity to human telomeric G-quadruplex TelQ24 (5'-d(TTAGGG)4)-3') DNA at 25 degC by fluorescent intercalator displacement assay
[5] = target: T1, Telomerase reverse transcriptase; experiment: Inhibition of human telomerase transfected in human HEK293T cells assessed as DNA extension using 5'-d(AATCCGTCGAGCAGAGTT)-3' substrate; assay type: cell-based; conditions: hek-293t
Homo sapiens [6] = species on record: Homo sapiens; experiment: Binding affinity to human telomeric G-quadruplex TelQ22-DA DNA assessed as change in melting temperature by FRET assay
Homo sapiens [7] = species on record: Homo sapiens; experiment: Binding affinity to human telomeric G-quadruplex TelQ22-DA DNA at 65 degC by FRET melting assay
[8] = target: T2, DNA topoisomerase 1 (Homo sapiens) (UniProt P11387); experiment: Inhibition of topoisomerase 1 (unknown origin)-mediated relaxation of supercoiled pBR322 at 1 uM after 30 mins by agarose gel electrophoresis
T2 sequence (whole entry): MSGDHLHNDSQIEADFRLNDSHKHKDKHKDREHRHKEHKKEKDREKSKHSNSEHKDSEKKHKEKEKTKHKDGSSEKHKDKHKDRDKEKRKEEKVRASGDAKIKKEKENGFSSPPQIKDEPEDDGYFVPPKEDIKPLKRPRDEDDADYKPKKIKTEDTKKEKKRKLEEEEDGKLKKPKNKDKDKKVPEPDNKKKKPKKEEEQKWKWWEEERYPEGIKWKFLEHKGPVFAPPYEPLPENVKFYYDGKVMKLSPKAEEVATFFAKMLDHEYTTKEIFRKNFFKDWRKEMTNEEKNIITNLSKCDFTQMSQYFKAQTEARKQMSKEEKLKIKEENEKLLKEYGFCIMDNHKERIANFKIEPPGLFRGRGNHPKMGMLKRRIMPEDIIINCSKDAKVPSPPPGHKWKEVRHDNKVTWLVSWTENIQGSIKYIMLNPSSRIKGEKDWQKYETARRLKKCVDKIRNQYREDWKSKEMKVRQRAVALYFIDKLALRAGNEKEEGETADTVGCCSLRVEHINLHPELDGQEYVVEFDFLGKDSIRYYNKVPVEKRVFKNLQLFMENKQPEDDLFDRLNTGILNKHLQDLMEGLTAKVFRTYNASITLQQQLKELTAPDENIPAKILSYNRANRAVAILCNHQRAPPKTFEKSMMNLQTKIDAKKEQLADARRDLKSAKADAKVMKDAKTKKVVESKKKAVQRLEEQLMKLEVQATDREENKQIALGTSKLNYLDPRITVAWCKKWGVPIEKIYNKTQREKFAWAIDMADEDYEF

L1210 [9] = experiment: Drug uptake in mouse L1210 cells at 1 uM after 3 hrs; assay type: ADME, cell-based; conditions: l1210, 3 h
L1210 [10] = experiment: Drug uptake in mouse L1210 cells at 1 uM after 15 mins; assay type: ADME, cell-based; conditions: l1210, 0.25 h

Kb (Homo sapiens [1]) [×10⁶ /M]	IC50 [3] [µM]	Kb (Homo sapiens [4]) [×10⁶ /M]	IC50 [5] [µM]	ΔTm (Homo sapiens [6]) [°C]	Kb (Homo sapiens [7]) [×10⁶ /M]	inhibition [8]	Drug uptake (L1210 [9])	Drug uptake (L1210 [10])	SMILES	IC50 (L1210 [2]) [µM]	IC50 (CCRF-CEM) [µM]
0.5	0.5	2.1	3	1	0.1	Active	–	–	N=C(N)NCCNc1c2c(c(N)c3ccsc13)C(=O)c1ccccc1C2=O	22	21
1.6	0.5	11	0.7	4.3	1.1	Active	Active	Active	CNCCNc1c2c(c(NCCNC)c3sccc13)C(=O)c1ccccc1C2=O.Cl	0.9	–
1.1	0.3	8	0.47	7	2.4	Active	–	–	CC(=N)NCCNc1c2c(c(NCCNC(C)=N)c3sccc13)C(=O)c1ccccc1C2=O	36	39
0.6	0.9	1.6	2	1	0.2	–	–	–	N=C(N)NCCNc1c2c(c(N)c3sccc13)C(=O)c1ccccc1C2=O	19	16
4.9	0.3	5.5	0.6	5.4	1.6	Active	–	–	CNCCNc1c2c(c(NCCNC(=N)N)c3ccsc13)C(=O)c1ccccc1C2=O	23	6
2.5	0.05	4	1.1	5.1	1.5	–	–	–	CNCCNc1c2c(c(NCCNC(=N)N)c3sccc13)C(=O)c1ccccc1C2=O	16	11
3.7	0.07	9	0.7	10	5	Active	Active	Active	Cl.N=C(N)NCCNc1c2c(c(NCCCN)c3sccc13)C(=O)c1ccccc1C2=O	10	10
–	33	1.3	10	0.1	0.01	–	–	–	Nc1c2c(c(N)c3sccc13)C(=O)c1ccccc1C2=O	> 250	> 250
11	0.1	12	0.8	5	1.5	Active	–	–	N=C(N)NCCNc1c2c(c(NCCN)c3sccc13)C(=O)c1ccccc1C2=O	16	7
–	0.08	8	0.7	12	7	Active	Active	Active	Cl.N=C(N)NCCNc1c2c(c(NCCNC(=N)N)c3sccc13)C(=O)c1ccccc1C2=O	20	11
